In test [1] the test system is HEK293T Tau RD P301S FRET biosensor cells. Kind of test: EV-mediated tau transfer assay. The format is cell-based. As for the experimental part:
For EV (extracellular vesicles)-mediated tau transfer assay, donor cells, transduced with AD-brain derived synaptosomal extracts (P2) or synthetic K18 seeds, were cultured for 48 hours in exosome-free medium with or without indicated concentration of tested compounds or DMSO for control, then medium was collected and EVs were purified using Exo-Quick-TC exosome purification kit (SBI, EXOTC10A-1) according to the manufacturing instructions. Naive recipient cells were plated at density 30,000 cells per well (96-well plates), grown for 12 hour in regular medium and then medium was exchanged to exosome-depleted medium, contained exosomes purified from donor cells (each well of recipients received amount of exosomes purified from one well of donor cells). Recipient cells were cultured in the presence of donor cell exosomes for 60 hrs. EV-mediated transfer assay scheme is presented at the FIG. 5A (right).
HEK293T Tau RD P301S FRET biosensor cells were growing in the Dulbecco's Modified Eagle's medium (DMEM) with higher glucose, 10% FBS, and 1% Penicillin-streptomycin at 37° C./5% CO2. Cells were plated in 10-sm dishes (3 million cells per dish in the regular medium) and grown for 12 hrs. Cells assigned to be donors were transduced with pulled synaptosomal (P2) extracts from AD cases using lipofectamine 2000, according to the published literature with minor modifications. We used 35 μg of pulled AD or control (NL) material per one 10-sm dish (TableS1). Defrosted P2 extracts were sonicated in water bath sonicator for 10 minutes, and diluted with Opti-MEM serum reduced medium to the final volume 200 μL per 10-sm dish. In a separate tube lipofectamine 2000 were combined with Opti-MEM medium, based on 25 μl of lipofectamine and 175 μL OptiMEM medium per each 10-sm dish, and incubated for 10 minutes at room temperature (RT). Each P2 or NL extract mix (200 μl) and prepared lipofectamine 2000 mix (200 μl) were combined and incubated for 20 min at RT. Each 10-sm dish with cell received 400 μl of the final liposomes in the total volume of medium 5 ml per dish. Cultures treated with equal amount of empty liposomes were used as an additional control group. Cells were incubated with liposomes for 20 hrs.
For “D+R” assay recipient cells were labeled with 1,1′-Dioctadecyl-3,3,3′,3′-tetramethylindodicarbocyanine (DiD) according to manufacturer's protocol (ThermoFisher V22887) on day 2. On day 3, donor cells were trypsinized (0.05% Trypsin/EDTA), washed with fresh exosome-free medium contained 10% of exosome-depleted FBS (ThermoFisher, A2720803). DiD-labeled recipient cells were also trypsinized and washed in exosome-free medium. […] FRET signal was detected using LSRII flow cytometer (BD biosciences). […]

Test [2] relates to HEK293T Tau RD P301S FRET biosensors. Kind of test: P2-induced tau aggregation in Tau P301S FRET biosensors (microscopy, flow cytometry). The test is classed as cell-based. An excerpt:
The tau biosensors were HEK293T cells, with stably expressed tau repeat domains with disease-associated mutation (P301S) fused to either CFP or YFP (HEK293T Tau RD P301S FRET biosensors) were transduced with pulled synaptosomal (P2) extracts from AD brains using lipofectamine 2000. Cultures treated with equal amount of empty liposomes were used as a control. […] Cells were imaged after 24 hrs using automated microscope imaging system (Lionheart FX) equipped with 20× objective and CFP-YFP FRET Image filter cube.
After sixty hours treatment, cells and cell medium were collected. Cells were prepared for flow cytometry and FRET signal was detected using LSRII flow cytometer (BD biosciences). Cells were back gated onto forward scatter versus side scatter to insure a single cell analysis, 5,000 cells were collected within the gate. FRET negative and FRET-positive cell populations were defined as previously described.

The structures appear in SMILES notation. “Also recorded” adds a separate entry of the source.

For `O=c1[nH]c(=S)[nH]c(-c2ccccc2)c1Cc1c(O)ccc2ccccc12` [cambinol], the “EV-mediated transfer of tau to recipient cells” value in test [1] (P2-seeded donor cells treated at 50 μM, 48 hours) is listed as “decrease; also recorded: more effective than the nSMase2 inhibitor GW4869”. For the same compound, in test [1] (inhibitor treatment of donor cells), the “reduction of EV-mediated transfer of tau seeds to naive recipient cells” value came to 8 times. For the same compound, the “FRET-positive tau aggregates, microscopy” value in test [2] (10 μM, imaged after 24 hrs, vs DMSO (FIG. 3A)) is “visibly decreased; also recorded: Decrease in the tau aggregation”. Also, the “FRET-positive signal (integrated FRET density), flow cytometry” value in test [2] (10 uM, sixty hours treatment (FIG. 3B)) is “significant decrease”.
